Measurements taken from patent US20220323406A1, “METHODS AND COMPOSITIONS FOR DIFFERENTIATING STEM CELLS” (Massachusetts Institute of Technology, priority 2019, published 2022).

Legend:
[1] = test system: ENR+CD organoids (ISC to Paneth cell differentiation); assay: Primary screen: basal (non-stimulated) lysozyme secretion LYZ.NS, 2.5-D 384-well ENR+CD organoid differentiation; type: cell-based, mouse
Source text: (§1) High-throughput screening.

[2] = test system: ENR+CD organoids (ISC to Paneth cell differentiation); assay: Primary screen: CCh-stimulated lysozyme secretion LYZ.S, 2.5-D 384-well ENR+CD organoid differentiation; type: cell-based, mouse; conditions: primary screen
Source text: as §1

[3] = test system: ENR+CD organoids; assay: Primary screen: ATP (CellTiter-Glo 3D, CTG) cell number/viability, 2.5-D 384-well ENR+CD organoids;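 note: compounds given at plating and again on day 3 over a 6-day differentiation from ENR+CV stem-cell-enriched precursors, ATP measured on day 6, plate median as control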
[4] = primary screen, dose 0.08 uM, standard z score
[5] = primary screen, dose 0.40 uM, standard z score
[6] = primary screen, dose 2.00 uM, standard z score
[7] = primary screen, dose 10.00 uM, standard z score
[8] = primary screen; dose 0.08 uM; FC vs plate median
[9] = primary screen; dose 0.40 uM; FC vs plate median
[10] = primary screen; dose 2.00 uM; FC vs plate median
[11] = primary screen; dose 10.00 uM; FC vs plate median
[12] = dose 0.08 uM, FC vs plate median
[13] = dose 0.40 uM, FC vs plate median
[14] = dose 2.00 uM, FC vs plate median
[15] = dose 10.00 uM, FC vs plate median
[16] = primary screen, 1st dose row of the treatment (0.08 uM by row order; dose not reprinted)
[17] = primary screen, 2nd dose row of the treatment (0.40 uM by row order; dose not reprinted)
[18] = primary screen, 3rd dose row of the treatment (2.00 uM by row order; dose not reprinted)
[19] = primary screen, 4th dose row of the treatment (10.00 uM by row order; dose not reprinted)
[20] = 1st dose row of the treatment (0.08 uM by row order; dose not reprinted)
[21] = 2nd dose row of the treatment (0.40 uM by row order; dose not reprinted)
[22] = 3rd dose row of the treatment (2.00 uM by row order; dose not reprinted)
[23] = 4th dose row of the treatment (10.00 uM by row order; dose not reprinted)
[24] = primary screen, dose 0.08 uM, FC relative to plate median
[25] = primary screen, dose 0.40 uM, FC relative to plate median
[26] = primary screen, dose 2.00 uM, FC relative to plate median
[27] = primary screen, dose 10.00 uM, FC relative to plate median
[28] = dose 0.08 uM, FC relative to plate median
[29] = dose 0.40 uM, FC relative to plate median
[30] = dose 2.00 uM, FC relative to plate median
[31] = dose 10.00 uM, FC relative to plate median
[32] = primary screen, standard z score, dose 0.08 uM
[33] = primary screen, standard z score, dose 0.40 uM
[34] = primary screen, standard z score, dose 2.00 uM
[35] = primary screen, standard z score, dose 10.00 uM

COc1cc(-n2c(=S)[nH]c3ccccc3c2=O)c(Cl)cc1Cl [Mdivi-1]
Dose.FC.LYZ.NS (log2 fold change) ([1]; primary screen, dose 0.08 uM): 0.177
Z.LYZ.NS (standard z score) ([1]; primary screen, dose 0.08 uM): 1.537
Dose.FC.LYZ.NS (log2 fold change) ([1]; primary screen, dose 0.40 uM): 0.156
Z.LYZ.NS (standard z score) ([1]; primary screen, dose 0.40 uM): 1.358
Dose.FC.LYZ.NS (log2 fold change) ([1]; primary screen, dose 2.00 uM): −0.022
Z.LYZ.NS (standard z score) ([1]; primary screen, dose 2.00 uM): −0.194
Dose.FC.LYZ.NS (log2 fold change) ([1]; primary screen, dose 10.00 uM): −0.268
Z.LYZ.NS (standard z score) ([1]; primary screen, dose 10.00 uM): −2.333
Dose.FC.LYZ.S (log2 fold change) ([2]; dose 0.08 uM): 0.079
Dose.FC.LYZ.S (log2 fold change) ([2]; dose 0.40 uM): 0.030
Dose.FC.LYZ.S (log2 fold change) ([2]; dose 2.00 uM): −0.048
Dose.FC.LYZ.S (log2 fold change) ([2]; dose 10.00 uM): −0.411
Dose.FC.CTG (log2 fold change) ([3]; primary screen, dose 0.08 uM): 0.008
Z.CTG (standard z score) ([3]; primary screen, dose 0.08 uM): 0.019
Dose.FC.CTG (log2 fold change) ([3]; primary screen, dose 0.40 uM): −0.031
Z.CTG (standard z score) ([3]; primary screen, dose 0.40 uM): −0.074
Dose.FC.CTG (log2 fold change) ([3]; primary screen, dose 2.00 uM): −0.112
Z.CTG (standard z score) ([3]; primary screen, dose 2.00 uM): −0.267
Dose.FC.CTG (log2 fold change) ([3]; primary screen, dose 10.00 uM): −0.527
Z.CTG (standard z score) ([3]; primary screen, dose 10.00 uM): −1.259

COc1ccc(-c2cnc3c(-c4cccc5ncccc45)cnn3c2)cc1 [ML347]
Z.LYZ.NS [1, 4]: 1.079
Z.LYZ.NS [1, 5]: 1.150
Z.LYZ.NS [1, 6]: 0.600
Z.LYZ.NS [1, 7]: −1.078
Dose.FC.LYZ.NS [1, 8]: 0.124 log2 fold change
Dose.FC.LYZ.NS [1, 9]: 0.132 log2 fold change
Dose.FC.LYZ.NS [1, 10]: 0.069 log2 fold change
Dose.FC.LYZ.NS [1, 11]: −0.124 log2 fold change
Dose.FC.LYZ.S [2, 12]: 0.094 log2 fold change
Dose.FC.LYZ.S [2, 13]: 0.111 log2 fold change
Dose.FC.LYZ.S [2, 14]: 0.072 log2 fold change
Dose.FC.LYZ.S [2, 15]: −0.202 log2 fold change
Z.CTG [3, 4]: 0.439
Z.CTG [3, 5]: 0.500
Z.CTG [3, 6]: 0.328
Z.CTG [3, 7]: −0.404
Dose.FC.CTG [3, 8]: 0.184 log2 fold change
Dose.FC.CTG [3, 9]: 0.209 log2 fold change
Dose.FC.CTG [3, 10]: 0.137 log2 fold change
Dose.FC.CTG [3, 11]: −0.169 log2 fold change

CC1(C)CCC(CN2CCN(c3ccc(C(=O)NS(=O)(=O)c4ccc(NCC5CCOCC5)c([N+](=O)[O-])c4)c(Oc4cnc5[nH]ccc5c4)c3)CC2)=C(c2ccc(Cl)cc2)C1 [ABT-199 (GDC-0199)]
SSMD.LYZ.NS_Rep (strictly standardized mean difference) [1, 16]: −0.009
SSMD.LYZ.NS_Rep (strictly standardized mean difference) [1, 17]: −0.192
SSMD.LYZ.NS_Rep (strictly standardized mean difference) [1, 18]: −0.116
SSMD.LYZ.NS_Rep (strictly standardized mean difference) [1, 19]: −0.810
Dose.FC.LYZ.NS ([1]; primary screen, dose 0.08 uM): −0.002 log2 fold change
Z.LYZ.NS (standard z score) ([1]; primary screen, dose 0.08 uM): −0.013
Dose.FC.LYZ.NS ([1]; primary screen, dose 0.40 uM): −0.029 log2 fold change
Z.LYZ.NS (standard z score) ([1]; primary screen, dose 0.40 uM): −0.251
Dose.FC.LYZ.NS ([1]; primary screen, dose 2.00 uM): −0.016 log2 fold change
Z.LYZ.NS (standard z score) ([1]; primary screen, dose 2.00 uM): −0.136
Dose.FC.LYZ.NS ([1]; primary screen, dose 10.00 uM): −0.169 log2 fold change
Z.LYZ.NS (standard z score) ([1]; primary screen, dose 10.00 uM): −1.471
SSMD.LYZ.S_Rep (strictly standardized mean difference) [2, 20]: −0.260
Z.LYZ.S (standard z score) [2, 20]: −0.285
SSMD.LYZ.S_Rep (strictly standardized mean difference) [2, 21]: 0.443
Z.LYZ.S (standard z score) [2, 21]: 0.494
SSMD.LYZ.S_Rep (strictly standardized mean difference) [2, 22]: −0.368
Z.LYZ.S (standard z score) [2, 22]: −0.404
SSMD.LYZ.S_Rep (strictly standardized mean difference) [2, 23]: −1.131
Z.LYZ.S (standard z score) [2, 23]: −1.890
Dose.FC.LYZ.S ([2]; dose 0.08 uM): −0.044 log2 fold change
Dose.FC.LYZ.S ([2]; dose 0.40 uM): 0.076 log2 fold change
Dose.FC.LYZ.S ([2]; dose 2.00 uM): −0.063 log2 fold change
Dose.FC.LYZ.S ([2]; dose 10.00 uM): −0.292 log2 fold change
SSMD.CTG.Rep (strictly standardized mean difference) [3, 16]: 0.051
SSMD.CTG.Rep (strictly standardized mean difference) [3, 17]: 0.111
SSMD.CTG.Rep (strictly standardized mean difference) [3, 18]: −0.377
SSMD.CTG.Rep (strictly standardized mean difference) [3, 19]: −1.402
Dose.FC.CTG ([3]; primary screen, dose 0.08 uM): 0.019 log2 fold change
Z.CTG (standard z score) ([3]; primary screen, dose 0.08 uM): 0.045
Dose.FC.CTG ([3]; primary screen, dose 0.40 uM): 0.038 log2 fold change
Z.CTG (standard z score) ([3]; primary screen, dose 0.40 uM): 0.090
Dose.FC.CTG ([3]; primary screen, dose 2.00 uM): −0.278 log2 fold change
Z.CTG (standard z score) ([3]; primary screen, dose 2.00 uM): −0.665
Dose.FC.CTG ([3]; primary screen, dose 10.00 uM): −0.519 log2 fold change
Z.CTG (standard z score) ([3]; primary screen, dose 10.00 uM): −1.240

Cc1ccc(-n2nccn2)c(C(=O)N2CCN(c3nc4cc(Cl)ccc4o3)CC[C@H]2C)c1 [Suvorexant (MK-4305)]
Dose.FC.LYZ.NS [1, 24]: 0.204 log2 fold change
Z.LYZ.NS [1, 4]: 1.775
Dose.FC.LYZ.NS [1, 25]: 0.123 log2 fold change
Z.LYZ.NS [1, 5]: 1.073
Dose.FC.LYZ.NS [1, 26]: 0.123 log2 fold change
Z.LYZ.NS [1, 6]: 1.073
Dose.FC.LYZ.NS [1, 27]: 0.077 log2 fold change
Z.LYZ.NS [1, 7]: 0.670
Dose.FC.LYZ.S [2, 28]: 0.186 log2 fold change
Dose.FC.LYZ.S [2, 29]: 0.142 log2 fold change
Dose.FC.LYZ.S [2, 30]: 0.101 log2 fold change
Dose.FC.LYZ.S [2, 31]: 0.131 log2 fold change
Dose.FC.CTG [3, 24]: 0.192 log2 fold change
Z.CTG [3, 4]: 0.458
Dose.FC.CTG [3, 25]: 0.255 log2 fold change
Z.CTG [3, 5]: 0.609
Dose.FC.CTG [3, 26]: 0.375 log2 fold change
Z.CTG [3, 6]: 0.895
Dose.FC.CTG [3, 27]: 0.250 log2 fold change
Z.CTG [3, 7]: 0.597

O=C(NOC[C@H](O)CO)c1ccc(F)c(F)c1Nc1ccc(I)cc1F [PD0325901]
Z.LYZ.NS [1, 4]: −1.046
Z.LYZ.NS [1, 5]: −1.064
Z.LYZ.NS [1, 6]: −1.215
Z.LYZ.NS [1, 7]: −1.625
Dose.FC.LYZ.NS [1, 8]: −0.120 log2 fold change
Dose.FC.LYZ.NS [1, 9]: −0.122 log2 fold change
Dose.FC.LYZ.NS [1, 10]: −0.139 log2 fold change
Dose.FC.LYZ.NS [1, 11]: −0.187 log2 fold change
Dose.FC.LYZ.S [2, 12]: −0.212 log2 fold change
Dose.FC.LYZ.S [2, 13]: −0.219 log2 fold change
Dose.FC.LYZ.S [2, 14]: −0.227 log2 fold change
Dose.FC.LYZ.S [2, 15]: −0.269 log2 fold change
Dose.FC.CTG [3, 8]: −0.502 log2 fold change
Dose.FC.CTG [3, 9]: −1.155 log2 fold change
Dose.FC.CTG [3, 10]: −0.867 log2 fold change
Dose.FC.CTG [3, 11]: −0.963 log2 fold change

CNC(=O)c1cc(Oc2ccc(NC(=O)Nc3ccc(Cl)c(C(F)(F)F)c3)cc2)ccn1 [Sorafenib]
Dose.FC.LYZ.NS [1, 24]: 0.052 log2 fold change
Z.LYZ.NS [1, 4]: 0.457
Dose.FC.LYZ.NS [1, 25]: 0.060 log2 fold change
Z.LYZ.NS [1, 5]: 0.520
Dose.FC.LYZ.NS [1, 26]: 0.095 log2 fold change
Z.LYZ.NS [1, 6]: 0.830
Dose.FC.LYZ.NS [1, 27]: −0.021 log2 fold change
Z.LYZ.NS [1, 7]: −0.180
Dose.FC.LYZ.S [2, 28]: 0.124 log2 fold change
Dose.FC.LYZ.S [2, 29]: 0.164 log2 fold change
Dose.FC.LYZ.S [2, 30]: 0.014 log2 fold change
Dose.FC.LYZ.S [2, 31]: −0.062 log2 fold change
Dose.FC.CTG [3, 24]: 0.032 log2 fold change
Dose.FC.CTG [3, 25]: 0.165 log2 fold change
Dose.FC.CTG [3, 26]: −0.206 log2 fold change

CC1(COc2ccc3c(c2)ncn3-c2ccc3cccc(N4CCC(N)CC4)c3n2)COC1 [Crenolanib (CP-868596)]
Dose.FC.LYZ.NS ([1]; primary screen, dose 0.08 uM): 0.121 log2 fold change
Dose.FC.LYZ.NS ([1]; primary screen, dose 0.40 uM): 0.051 log2 fold change
Dose.FC.LYZ.NS ([1]; primary screen, dose 2.00 uM): 0.122 log2 fold change
Dose.FC.LYZ.NS ([1]; primary screen, dose 10.00 uM): −0.224 log2 fold change
Z.LYZ.NS [1, 32]: 1.051
Z.LYZ.NS [1, 33]: 0.441
Z.LYZ.NS [1, 34]: 1.065
Z.LYZ.NS [1, 35]: −1.951
Dose.FC.LYZ.S ([2]; dose 0.08 uM): 0.094 log2 fold change
Dose.FC.LYZ.S ([2]; dose 0.40 uM): 0.043 log2 fold change
Dose.FC.LYZ.S ([2]; dose 2.00 uM): 0.149 log2 fold change
Dose.FC.LYZ.S ([2]; dose 10.00 uM): −0.292 log2 fold change
Dose.FC.CTG ([3]; primary screen, dose 0.08 uM): −0.069 log2 fold change
Dose.FC.CTG ([3]; primary screen, dose 0.40 uM): −0.025 log2 fold change
Dose.FC.CTG ([3]; primary screen, dose 2.00 uM): 0.053 log2 fold change
Dose.FC.CTG ([3]; primary screen, dose 10.00 uM): −0.338 log2 fold change
Z.CTG [3, 32]: −0.165
Z.CTG [3, 33]: −0.059
Z.CTG [3, 34]: 0.127
Z.CTG [3, 35]: −0.808
